# pIC50: −log10 of the molar value.
# Tests used:
# [1] = In vitro inhibitory concentration against growth of SNB19 glioblastoma cell line in clonogenic survival assay after 24 hr; type: functional, cell-based, Homo sapiens
# U-87 MG = test: In vitro inhibitory concentration against growth of U87MG glioblastoma cell line in clonogenic survival assay after 24 hr; type: functional, cell-based, Homo sapiens, U-87MG ATCC
# [2] = Homo sapiens, Glioblastoma, 24 h
Compound,"pIC50 [1, 2]","pIC50 (U-87 MG; Homo sapiens, U-87 MG, 24 h)",pIC50 ([1]; glioblastoma),pIC50 (U-87 MG; u-87mg atcc)
CNC(=S)N(C)CCNc1c2ccccc2nc2ccccc12,5.61,5.74,,
O=NN(CCCl)C(=O)NCCCl [CARMUSTINE],5.63,5.85,,
CISPLATIN,,,6.09,6.31
